Earlier results as cited in PubChem BioAssay AID1259409 (Chemical Carcinogenesis Research Information System (CCRIS), 2018).

Test system: rodent chemically induced tumor inhibition, incidence and multiplicity
Experiment: CCRIS tumor inhibitor studies
Conditions: Species: MOUSE

CC(C)Cn1c(=O)n(C)c(=O)c2[nH]cnc21
tumour outcome (control, treated, inhibition, significance) (Carcinogen: 7,12-DIMETHYLBENZ[A]ANTHRACENE, 57-97-6, Dose [Inhibitor]: 5 UMOL 2/WK FOR 48 WK APPLIED AT LEAST 5 MIN BEFORE AND TO SAME AREA OF SKIN AS EACH PROMOTER DOSE, STARTING 2 WK AFTER, Route [Inhibitor]: DERMAL, Strain/Sex: CD-1/FEMALE, Target Tissue: Type of Lesion: SKIN: CARCINOMA, Dose [Carcinogen]: 0.1 UMOL ONCE 2 WK PRIOR TO FIRST DOSE OF INHIBITOR, Promoter: 12-O-TETRADECANOYLPHORBOL-13-ACETATE;16561-29-8): 35%, 19%, 46%, not calculated | tumour outcome (control, treated, inhibition, significance) (Carcinogen: 7,12-DIMETHYLBENZ[A]ANTHRACENE, 57-97-6, Dose [Inhibitor]: 5 UMOL 2/WK FOR 48 WK APPLIED AT LEAST 5 MIN BEFORE AND TO SAME AREA OF SKIN AS EACH PROMOTER DOSE, STARTING 2 WK AFTER, Route [Inhibitor]: DERMAL, Strain/Sex: CD-1/FEMALE, Target Tissue: Type of Lesion: SKIN: PAPILLOMA, Dose [Carcinogen]: 0.1 UMOL ONCE 2 WK PRIOR TO FIRST DOSE OF INHIBITOR, Promoter: 12-O-TETRADECANOYLPHORBOL-13-ACETATE;16561-29-8): 100%, 82%, 18%, not calculated | tumour outcome (control, treated, inhibition, significance) (Carcinogen: 7,12-DIMETHYLBENZ[A]ANTHRACENE, 57-97-6, Dose [Inhibitor]: 5 UMOL APPLIED 2/WK THROUGHOUT THE STUDY AT LEAST 5 MIN BEFORE AND TO SAME AREA OF SKIN AS EACH DOSE OF PROMOTER STARTIN, Route [Inhibitor]: DERMAL, Strain/Sex: CD-1/FEMALE, Target Tissue: Type of Lesion: SKIN: CARCINOMA, Dose [Carcinogen]: 0.1 UMOL APPLIED ONCE, Promoter: 12-O-TETRADECANOYLPHORBOL-13-ACETATE, 16561-29-8): 35%, 19%, 46%, not calculated | tumour outcome (control, treated, inhibition, significance) (Carcinogen: 7,12-DIMETHYLBENZ[A]ANTHRACENE, 57-97-6, Dose [Inhibitor]: 5 UMOL APPLIED 2/WK THROUGHOUT THE STUDY AT LEAST 5 MIN BEFORE AND TO SAME AREA OF SKIN AS EACH DOSE OF PROMOTER STARTIN, Route [Inhibitor]: DERMAL, Strain/Sex: CD-1/FEMALE, Target Tissue: Type of Lesion: SKIN: PAPILLOMA, Dose [Carcinogen]: 0.1 UMOL APPLIED ONCE, Promoter: 12-O-TETRADECANOYLPHORBOL-13-ACETATE, 16561-29-8): 100%, 82%, 18%, not calculated | tumour outcome (control, treated, inhibition, significance) (Carcinogen: 7,12-DIMETHYLBENZ[A]ANTHRACENE, 57-97-6, Dose [Inhibitor]: 10 UMOL 1/WK FOR 30 WK APPLIED AT LEAST 5 MIN PRIOR TO EACH CARCINOGEN TREATMENT (STUDY DURATION: 30 WK), Route [Inhibitor]: DERMAL, Strain/Sex: CD-1/FEMALE, Target Tissue: Type of Lesion: SKIN: CARCINOMA, Dose [Carcinogen]: 0.2 UMOL 1/WK FOR 30 WK, Promoter: NONE USED): 59%, 42%, 29%, not significant | tumour outcome (control, treated, inhibition, significance) (Carcinogen: 7,12-DIMETHYLBENZ[A]ANTHRACENE, 57-97-6, Dose [Inhibitor]: 10 UMOL 1/WK FOR 30 WK APPLIED AT LEAST 5 MIN PRIOR TO EACH CARCINOGEN TREATMENT (STUDY DURATION: 30 WK), Route [Inhibitor]: DERMAL, Strain/Sex: CD-1/FEMALE, Target Tissue: Type of Lesion: SKIN: PAPILLOMA, Dose [Carcinogen]: 0.2 UMOL ONCE 1/WK FOR 30 WK, Promoter: NONE USED): 100%, 100%, 0%, not significant | tumour outcome (control, treated, inhibition, significance) (Carcinogen: 7,12-DIMETHYLBENZ[A]ANTHRACENE, 57-97-6, Dose [Inhibitor]: 10 UMOL APPLIED 1/WK THROUGHOUT THE STUDY AT LEAST 5 MIN BEFORE AND TO SAME AREA OF SKIN AS EACH APPLICATION OF CARCINOG, Route [Inhibitor]: DERMAL, Strain/Sex: CD-1/FEMALE, Target Tissue: Type of Lesion: SKIN: CARCINOMA, Dose [Carcinogen]: 0.2 UMOL 1/WK FOR 30 WK, Promoter: NONE USED): 59%, 42%, 29%, not significant | tumour outcome (control, treated, inhibition, significance) (Carcinogen: 7,12-DIMETHYLBENZ[A]ANTHRACENE, 57-97-6, Dose [Inhibitor]: 10 UMOL APPLIED 1/WK THROUGHOUT THE STUDY AT LEAST 5 MIN BEFORE AND TO SAME AREA OF SKIN AS EACH APPLICATION OF CARCINOG, Route [Inhibitor]: DERMAL, Strain/Sex: CD-1/FEMALE, Target Tissue: Type of Lesion: SKIN: PAPILLOMA, Dose [Carcinogen]: 0.2 UMOL 1/WK FOR 30 WK, Promoter: NONE USED): 100%, 100%, 0%, not significant | outcome (Carcinogen: 7,12-DIMETHYLBENZ[A]ANTHRACENE, 57-97-6, Dose [Inhibitor]: 10 UMOL APPLIED ONCE AT LEAST 5 MIN PRIOR TO CARCINOGEN DOSE (STUDY DURATION: 34 WK), Route [Inhibitor]: DERMAL, Strain/Sex: CD-1/FEMALE, Target Tissue: Type of Lesion: SKIN: CARCINOMA, Dose [Carcinogen]: 3.6 UMOL ONCE, Promoter: NONE USED): 0%, 4%, not calculated

C=CCc1cc(OC)c2c(c1)OCO2
tumour outcome (control, treated, inhibition, significance) (Carcinogen: BENZO[A]PYRENE, 50-32-8, Dose [Inhibitor]: 0, 10 MG SUSPENDED IN 0.3 ML COTTONSEED OIL 3/WK FOR 4 WK ON DAYS OTHER THAN THE CARCINOGEN TREATMENT, 3 ADDITIONAL DOSE, Route [Inhibitor]: GAVAGE, Strain/Sex: STRAIN-A/FEMALE, Target Tissue: Type of Lesion: FORESTOMACH: TUMOR, Dose [Carcinogen]: 1 MG IN 0.3 ML COTTONSEED OIL 2/WK FOR 4 WK, Promoter: NONE USED): 12/17 (71%), 13/18 (72%), -1%, not significant | tumour outcome (control, treated, inhibition, significance) (Carcinogen: BENZO[A]PYRENE, 50-32-8, Dose [Inhibitor]: 0, 10 MG SUSPENDED IN 0.3 ML COTTONSEED OIL 3/WK FOR 4 WK ON DAYS OTHER THAN THE CARCINOGEN TREATMENT, 3 ADDITIONAL DOSE, Route [Inhibitor]: GAVAGE, Strain/Sex: STRAIN-A/FEMALE, Target Tissue: Type of Lesion: LUNG: TUMOR, Dose [Carcinogen]: 1 MG IN 0.3 ML COTTONSEED OIL 2/WK FOR 4 WK, Promoter: NONE USED): 17/17 (100%), 18/18 (100%), 0%, not significant

CCOC(=O)Oc1ccc(/C=C/C=C/C(=O)NCCN2CCC(OC(c3ccccc3)c3ccccc3)CC2)cc1OC
tumour outcome (control, treated, inhibition, significance) (Carcinogen: 7,12-DIMETHYLBENZ[A]ANTHRACENE, 57-97-6, Dose [Inhibitor]: 0, 30 MG/KG IN 5% TWEEN 80 ADMINISTERED 30 MIN PRIOR TO EACH PROMOTER DOSE 2/WK FOR 22 WK (STUDY DURATION: 25 WK), Route [Inhibitor]: ORAL, Strain/Sex: CD-1/FEMALE, Target Tissue: Type of Lesion: SKIN: TUMOR, Dose [Carcinogen]: 200 NMOL ONCE, Promoter: 12-O-TETRADECANOYL-13-ACETATE, 16561-29-8): 100%, 55%, 45%, p<0.05 | tumour outcome (control, treated, inhibition, significance) (Carcinogen: 7,12-DIMETHYLBENZ[A]ANTHRACENE, 57-97-6, Dose [Inhibitor]: 0, 30 MG/KG IN 5% TWEEN 80 ADMINISTERED 30 MIN PRIOR TO EACH PROMOTER DOSE 2/WK FOR 22 WK (STUDY DURATION: 25 WK), Route [Inhibitor]: ORAL, Strain/Sex: CD-1/FEMALE, Target Tissue: Type of Lesion: SKIN: TUMOR, Dose [Carcinogen]: 200 NMOL ONCE, Promoter: ANTHRALIN, 1143-38-0): 92%, 35%, 62%, p<0.05 | tumour outcome (control, treated, inhibition, significance) (Carcinogen: BENZO[A]PYRENE, 50-32-8, Dose [Inhibitor]: 0, 30 MG/KG IN 5% TWEEN 80 1/WK FOR 22 WK ADMINISTERED 30 MIN PRIOR TO EACH CARCINOGEN DOSE (STUDY DURATION: 22 WK), Route [Inhibitor]: ORAL, Strain/Sex: CD-1/FEMALE, Target Tissue: Type of Lesion: SKIN: TUMOR, Dose [Carcinogen]: 200 NMOL 1/WK FOR 22 WK, Promoter: NONE USED): 100%, 50%, 50%, p<0.05
